Here are results for ten compounds from patent publication US9499550B2 (BRISTOL-MYERS SQUIBB COMPANY, priority 2012, dated 2016).

For orientation: pEC50 means the negative decadic logarithm of the EC50, by convention in mol/L.

For assay [1], the system named is HCV genotype 1a (H77 strain) replicon in HUH-7 cells. The experiment in a line: HCV replicon luciferase reporter assay, genotype 1a. To be noted: Hepatitis C virus, Huh-7, 72 h, HCV genotype 1a replicon luciferase, 3 days incubation, read-out: LE_1a (EC50, range). The class given is cell-based. In outline:
(§1)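 Replicon inhibition for both genotypes was measured as Renilla luciferase signal (EnduRen, 7.5 μM final, 2 h) after 3-day, 37° C exposure of replicon-bearing HUH-7 cells in 4% FCS DMEM, 0.5% DMSO. The 1b construct carries S1179I; the 1a H77 construct carries P1496L and S2204I. Twenty-point, 3-fold dilutions were fitted four-parametrically for EC50, and CC50 was taken from multiplexed Cell Titer-Blue.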
For orientation: In antiviral work, replicon cells carry a viral genome segment that copies itself.

The subject of assay [2] is HCV genotype 1b (Con1) replicon in HUH-7 cells. Nature of the assay: HCV replicon luciferase reporter assay, genotype 1b. It counts as cell-based. To be noted: Hepatitis C virus, Huh-7, 72 h, HCV genotype 1b replicon luciferase, 3 days incubation, read-out: LE_1b (EC50, range). In outline: as §1

pEC50: −log10 of the molar value.

Regarding `CCOc1ccc2c(O[C@@H]3C[C@H]4C(=O)N[C@]5(C(=O)NS(=O)(=O)C6CC6)C[C@H]5/C=C\CC[C@@H](C)C[C@@H](CC)[C@H](NC(=O)OC(C)(C)C(F)(F)F)C(=O)N4C3)nccc2c1` [Compound 5357, 1,1,1-trifluoro-2-methylpropan-2-yl((2R,6S,7R,9R,13aS,14aR,16aS,Z)-14a-((cyclopropylsulfonyl)carbamoyl)-2-((6-ethoxyisoquinolin-1-yl)oxy)-7-ethyl-9-methyl-5,16-dioxo-1,2,3,5,6,7,8,9,10,11,13a,14,14a,15,16,16a-hexadecahydrocyclopropa[e]pyrrolo[1,2-a][1,4]diazacyclopentadecin-6-yl)carbamate], the values for the pEC50 in assay [1] and in assay [2] were 8.30 to 9.00 and 9.00 to 9.29, respectively.

Take `CCOc1ccc2c(O[C@@H]3C[C@H]4C(=O)N[C@]5(C(=O)NS(=O)(=O)C6CC6)C[C@H]5/C=C\CC[C@@H](C)C[C@@H](CC)[C@H](NC(=O)OC(C)(C)C(C)(F)F)C(=O)N4C3)nccc2c1` [Compound 5359]: the pEC50 in assay [1] and in assay [2] was 8.30 to 9.00 each time.

With `CCOc1ccc2c(O[C@@H]3C[C@H]4C(=O)N[C@]5(C(=O)NS(=O)(=O)C6CC6)C[C@H]5/C=C\CC[C@@H](C)C[C@@H](CC)[C@H](NC(=O)OC(C)(C)C)C(=O)N4C3)nccc2c1` [Compound 5361, tert-butyl ((2R,6S,7R,9R,13aS,14aR,16aS,Z)-14a-((cyclopropylsulfonyl)carbamoyl)-2-((6-ethoxyisoquinolin-1-yl)oxy)-7-ethyl-9-methyl-5,16-dioxo-1,2,3,5,6,7,8,9,10,11,13a,14,14a,15,16,16a-hexadecahydrocyclopropa[e]pyrrolo[1,2-a][1,4]diazacyclopentadecin-6-yl)carbamate], the pEC50 in assay [1] and in assay [2] was 9.00 to 9.29 throughout.

As for `CCOc1ccc2c(O[C@@H]3C[C@H]4C(=O)N[C@]5(C(=O)NS(=O)(=O)C6(CF)CC6)C[C@H]5/C=C\CC[C@@H](C)C[C@@H](C)[C@H](NC(=O)OC(C)(C)C(F)(F)F)C(=O)N4C3)nccc2c1` [Compound 5363, 1,1,1-trifluoro-2-methylpropan-2-yl((2R,6S,7R,9R,13aS,14aR,16aS,Z)-2-((6-ethoxyisoquinolin-1-yl)oxy)-14a-(((1-(fluoromethyl)cyclopropyl)sulfonyl)carbamoyl)-7,9-dimethyl-5,16-dioxo-1,2,3,5,6,7,8,9,10,11,13a,14,14a,15,16,16a-hexadecahydrocyclopropa[e]pyrrolo[1,2-a][1,4]diazacyclopentadecin-6-yl)carbamate], the pEC50 was 8.30 to 9.00 in assay [1] and 9.00 to 9.29 in assay [2].

Take `CCOc1ccc2c(O[C@@H]3C[C@H]4C(=O)N[C@]5(C(=O)NS(=O)(=O)C6(CF)CC6)C[C@H]5/C=C\CC[C@@H](C)C[C@@H](C)[C@H](NC(=O)OC(C)(C)C(C)(F)F)C(=O)N4C3)nccc2c1` [Compound 5365, 3,3-difluoro-2-methylbutan-2-yl((2R,6S,7R,9R,13aS,14aR,16aS,Z)-2-((6-ethoxyisoquinolin-1-yl)oxy)-14a-(((1-(fluoromethyl)cyclopropyl)sulfonyl)carbamoyl)-7,9-dimethyl-5,16-dioxo-1,2,3,5,6,7,8,9,10,11,13a,14,14a,15,16,16a-hexadecahydrocyclopropa[e]pyrrolo[1,2-a][1,4]diazacyclopentadecin-6-yl)carbamate]: the pEC50 in assay [1] is 8.30 to 9.00; in assay [2] it was 9.00 to 9.29.

With `CCOc1ccc2c(O[C@@H]3C[C@H]4C(=O)N[C@]5(C(=O)NS(=O)(=O)C6(CF)CC6)C[C@H]5/C=C\CC[C@@H](C)C[C@@H](C)[C@H](NC(=O)OC(C)(C)C)C(=O)N4C3)nccc2c1` [Compound 5367, tert-butyl ((2R,6S,7R,9R,13aS,14aR,16aS,Z)-2-((6-ethoxyisoquinolin-1-yl)oxy)-14a-(((1-(fluoromethyl)cyclopropyl)sulfonyl)carbamoyl)-7,9-dimethyl-5,16-dioxo-1,2,3,5,6,7,8,9,10,11,13a,14,14a,15,16,16a-hexadecahydrocyclopropa[e]pyrrolo[1,2-a][1,4]diazacyclopentadecin-6-yl)carbamate], the pEC50 in assay [1] was 9.00 to 9.29; in assay [2], 9.30 to 10.00.

In the case of `CCOc1ccc2c(O[C@@H]3C[C@H]4C(=O)N[C@]5(C(=O)NS(=O)(=O)C6(C)CC6)C[C@H]5/C=C\CC[C@@H](C)C[C@@H](CC)[C@H](NC(=O)OC(C)(C)C(F)(F)F)C(=O)N4C3)nccc2c1` [Compound 5369, 1,1,1-trifluoro-2-methylpropan-2-yl((2R,6S,7R,9R,13aS,14aR,16aS,Z)-2-((6-ethoxyisoquinolin-1-yl)oxy)-7-ethyl-9-methyl-14a-(((1-methylcyclopropyl)sulfonyl)carbamoyl)-5,16-dioxo-1,2,3,5,6,7,8,9,10,11,13a,14,14a,15,16,16a-hexadecahydrocyclopropa[e]pyrrolo[1,2-a][1,4]diazacyclopentadecin-6-yl)carbamate], the pEC50 in assay [1] and in assay [2] was 8.30 to 9.00 in each case.

`CCOc1ccc2c(O[C@@H]3C[C@H]4C(=O)N[C@]5(C(=O)NS(=O)(=O)C6(C)CC6)C[C@H]5/C=C\CC[C@@H](C)C[C@@H](CC)[C@H](NC(=O)OC(C)(C)C(C)(F)F)C(=O)N4C3)nccc2c1` [Compound 5371, 3,3-difluoro-2-methylbutan-2-yl((2R,6S,7R,9R,13aS,14aR,16aS,Z)-2-((6-ethoxyisoquinolin-1-yl)oxy)-7-ethyl-9-methyl-14a-(((1-methylcyclopropyl)sulfonyl)carbamoyl)-5,16-dioxo-1,2,3,5,6,7,8,9,10,11,13a,14,14a,15,16,16a-hexadecahydrocyclopropa[e]pyrrolo[1,2-a][1,4]diazacyclopentadecin-6-yl)carbamate]: the values for the negative logarithm of the EC50 (pEC50) in assay [1] and in assay [2] were 8.30 to 9.00 and 9.00 to 9.29, respectively.

With `CCOc1ccc2c(O[C@@H]3C[C@H]4C(=O)N[C@]5(C(=O)NS(=O)(=O)C6(C)CC6)C[C@H]5/C=C\CC[C@@H](C)C[C@@H](CC)[C@H](NC(=O)OC(C)(C)C)C(=O)N4C3)nccc2c1` [Compound 5373, tert-butyl ((2R,6S,7R,9R,13aS,14aR,16aS,Z)-2-((6-ethoxyisoquinolin-1-yl)oxy)-7-ethyl-9-methyl-14a-(((1-methylcyclopropyl)sulfonyl)carbamoyl)-5,16-dioxo-1,2,3,5,6,7,8,9,10,11,13a,14,14a,15,16,16a-hexadecahydrocyclopropa[e]pyrrolo[1,2-a][1,4]diazacyclopentadecin-6-yl)carbamate], the pEC50 in assay [1] was 8.30 to 9.00; in assay [2], 9.00 to 9.29.

As to `COc1cc2ccnc(O[C@@H]3C[C@H]4C(=O)N[C@]5(C(=O)NS(=O)(=O)C6(C)CC6)C[C@H]5/C=C\CC[C@@H](C)C[C@@H](C)[C@H](NC(=O)OC(C)(C)C(F)(F)F)C(=O)N4C3)c2cc1OC` [Compound 5375, 1,1,1-trifluoro-2-methylpropan-2-yl((2R,6S,7R,9R,13aS,14aR,16aS,Z)-2-((6,7-dimethoxyisoquinolin-1-yl)oxy)-7,9-dimethyl-14a-(((1-methylcyclopropyl)sulfonyl)carbamoyl)-5,16-dioxo-1,2,3,5,6,7,8,9,10,11,13a,14,14a,15,16,16a-hexadecahydrocyclopropa[e]pyrrolo[1,2-a][1,4]diazacyclopentadecin-6-yl)carbamate], the negative logarithm of the EC50 (pEC50) in assay [1] was 8.30 to 9.00; in assay [2], 9.00 to 9.29.
